Assays:
Format in all cases: in vivo
apple tree (Tsugaru) = assay: preventing sunburn, spray on apple tree
Description: The effects of a quality improver in preventing sunburn were evaluated using an apple tree (Tsugaru).
That is, the quality improver of Example 1 was sprayed on the apple tree at the polyvalent metal concentrations shown in Table 12 over three times from early July (two-week interval). Each treatment was conducted on each branch by spraying with a backpack sprayer.
The evaluation was carried out on 50 randomly selected fruits. The incidence of sunburn was expressed as a ratio of the number of fruits with sunburn to the total number of fruits examined. The level of sunburn was expressed on a 4-point scale (none=0, mild=1, moderate=2, severe=3) based on a ratio of the sunburn area to the total surface area of the fruit. The fruit with a sunburn level of 2 or 3 was considered as a seriously damaged fruit. The dirt on a fruit surface was evaluated by a ratio of the surface area soiled whitish to the total surface area of the fruit on a scale of 1 to 5 (not soiled=1, slightly soiled=2, a little soiled=3, moderately soiled=4, much soiled=5). The phytotoxicity was evaluated on a scale of 1 to 5 (normal=1, slightly damaged=2, a little damaged=3, moderately damaged=4, much damaged=5).
The examinations were carried out in the same manner as in Application Example 84 except that the quality improvers of Examples 2 to 4, 6 to 7, 12, 14, 17 to 18, and Comparative Examples 1 to 4 were used instead of the quality improver of Example 1.

apple tree (Orin) = assay: reducing bitter pit and improving fruit quality, spray on apple tree; details: for Incidence of bitter pit: 50 fruits, sprayed four times; for Ground color: fruit skin, 5-point scale (best=5, worst=1); for Phytotoxicity: scale of 1 to 5; for Sugar content: sugar refractometer; for Acidity: titratable malic acid content
Description: The effects of a quality improver in reducing bitter pit and improving fruit quality were evaluated using an apple tree (Orin). That is, the quality improver of Example 1 was sprayed on the apple tree at the polyvalent metal concentrations shown in Table 4 over four times from early June (two-week interval). Each treatment was conducted on each branch by spraying with a backpack sprayer.
The evaluation was carried out on 50 randomly selected fruits. The incidence of bitter pit was expressed as a ratio of the number of fruits with bitter pit to the total number of fruits examined. The ground color of fruit skin was determined on a 5-point scale (best=5, worst=1). The sugar content was determined using a sugar refractometer. The acidity was expressed as titratable malic acid content. The phytotoxicity was evaluated on a scale of 1 to 5 (normal=1, slightly damaged=2, a little damaged=3, moderately damaged=4, much damaged=5).
The examinations were carried out in the same manner as in Application Example 22 except that the quality improvers of Examples 2 to 21 and Comparative Examples 1 to 4 were used instead of the quality improver of Example 1.

[1] = system: mandarin orange tree (Satsuma mandarin); assay: preventing peel puffing and improving fruit quality, leaf spray on mandarin orange tree; details: for Fruit skin color: color chart 0 (poorly colored) to 12 (fully colored); for Degree of peel puffing: peel puffing index, 20 fruits, sprayed three times; for Phytotoxicity: scale of 1 to 5; for Sugar content: sugar refractometer; for Acidity: titratable citric acid content
Description: The effects of a quality improver in preventing peel puffing and improving fruit quality were evaluated using a mandarin orange tree (Satsuma mandarin). That is, the quality improver of Example 1 was sprayed on the mandarin orange tree at the polyvalent metal concentrations shown in Table 2 over three times from early September (one-month interval). Each treatment was conducted on each branch by spraying with a backpack sprayer.
The evaluation was carried out on 20 randomly selected fruits. The degree of peel puffing was evaluated by examining cross sections of the fruits based on a 4-point scale (none=0, mild=1, moderate=2, severe=3), and expressed by the following equation: peel puffing index={(1×the number of fruits with mild peel puffing)+(2×the number of fruits with moderate peel puffing)+(3×the number of fruits with severe peel puffing)}×100/(3×the number of fruits examined). The fruit skin color was determined using a color chart based on a scale of 0 (poorly colored) to 12 (fully colored). The sugar content was determined using a sugar refractometer. The acidity was expressed as titratable citric acid content. The dirt on a fruit surface was evaluated by a ratio of the surface area soiled whitish to the total surface area of the fruit on a scale of 1 to 5 (not soiled=1, slightly soiled=2, a little soiled=3, moderately soiled=4, much soiled=5). The phytotoxicity was evaluated on a scale of 1 to 5 (normal=1, slightly damaged=2, a little damaged=3, moderately damaged=4, much damaged=5).
The examinations were carried out in the same manner as in Application Example 1 except that the quality improvers of Examples 2 to 21 and Comparative Examples 1 to 4 were used instead of the quality improver of Example 1.

Row | Compound | Incidence of sunburn (apple tree (Tsugaru); polyvalent metal 0.030 wt. %) [%] | Phytotoxicity (apple tree (Tsugaru); polyvalent metal 0.030 wt. %) | Seriously damaged fruit (apple tree (Tsugaru); polyvalent metal 0.030 wt. %) [%] | Incidence of sunburn (apple tree (Tsugaru); polyvalent metal 0.075 wt. %) [%] | Phytotoxicity (apple tree (Tsugaru); polyvalent metal 0.075 wt. %) | Seriously damaged fruit (apple tree (Tsugaru); polyvalent metal 0.075 wt. %) [%] | Incidence of bitter pit (apple tree (Orin); polyvalent metal 0.030 wt. %) [%] | Incidence of bitter pit (apple tree (Orin); polyvalent metal 0.075 wt. %) [%] | Ground color (apple tree (Orin); polyvalent metal 0.030 wt. %) | Ground color (apple tree (Orin); polyvalent metal 0.075 wt. %) | Phytotoxicity (apple tree (Orin); polyvalent metal 0.030 wt. %) | Phytotoxicity (apple tree (Orin); polyvalent metal 0.075 wt. %) | Sugar content (apple tree (Orin); polyvalent metal 0.030 wt. %) | Sugar content (apple tree (Orin); polyvalent metal 0.075 wt. %) | Acidity (apple tree (Orin); polyvalent metal 0.030 wt. %) | Acidity (apple tree (Orin); polyvalent metal 0.075 wt. %) | Fruit skin color ([1]; polyvalent metal 0.030 wt. %) | Fruit skin color ([1]; polyvalent metal 0.075 wt. %) | Degree of peel puffing ([1]; polyvalent metal 0.030 wt. %) | Degree of peel puffing ([1]; polyvalent metal 0.075 wt. %) | further results
1 | [Ca+2].[Cl-].[Cl-] [calcium chloride] | 10.0 | 4 | 8.0 | 12.0 | 4 | 8.0 | 30.0 | 25.0 | 3.7 | 3.9 | 4 | 4 | 14.1 | 14.2 | 0.37 | 0.35 | 9.5 | 9.9 | 47.0 | 42.0 | Phytotoxicity ([1]; polyvalent metal 0.030 wt. %): 4; Phytotoxicity ([1]; polyvalent metal 0.075 wt. %): 4; Sugar content ([1]; polyvalent metal 0.030 wt. %): 10.0; Sugar content ([1]; polyvalent metal 0.075 wt. %): 10.1; Acidity ([1]; polyvalent metal 0.030 wt. %): 1.00; Acidity ([1]; polyvalent metal 0.075 wt. %): 0.99
2 | O=C[O-].O=C[O-].[Ca+2] [calcium formate] | 10.0 | 3 | 6.0 | 10.0 | 3 | 6.0 | 26.0 | 24.0 | 3.8 | 3.8 | 3 | 3 | 14.5 | 14.9 | 0.38 | 0.30 | 10.0 | 10.4 | 47.5 | 42.5 | Phytotoxicity ([1]; polyvalent metal 0.030 wt. %): 3; Phytotoxicity ([1]; polyvalent metal 0.075 wt. %): 3; Sugar content ([1]; polyvalent metal 0.030 wt. %): 10.5; Sugar content ([1]; polyvalent metal 0.075 wt. %): 11.1; Acidity ([1]; polyvalent metal 0.030 wt. %): 0.93; Acidity ([1]; polyvalent metal 0.075 wt. %): 0.95

From patent US8404619B2, “Particulate plant treatment composition” (Maruo Calcium Company Limited, priority 2005, dated 2013)
